Experimental data taken from patent EP2557075A1, “New triazene compounds for treating cancer” (Trin Therapeutics GmbH, priority 2011, dated 2013).
Like-named read-outs stand apart in the source and are kept apart here.

Experiments:
MCF-7-Zellen = experiment: Intracellular metabolisation of triazenes in MCF-7 cell culture (Experiment 1); type: in vitro ADME; conditions: MCF-7, 100nmol/ml, 100% FCS
Method: Es wird gezeigt, dass Verbindungen nach Beispiel 1 schneller und in größerer Menge intrazellulär metabolisiert werden als die als Vergleichssubstanzen eingesetzten Verbindungen nach Präparat 2 und 5 (entsprechend Verbindungen nach Präparat 2 und Beispiel 2a jeweils der WO 2009/004060).
Die getesteten Verbindungen wurden wie folgt gelöst: • Erfindungsgemäße Verbindung: • Beispiel 1 : in 20 mg/ml DMSO
(§1) Vergleichssubstanzen: • Präparat 2: in 50mg/ml DMSO, • Präparat 5: in 50mg/ml Wasser.
Alle drei Substanzen wurden äquimolar in einer Dosis von 100nmol/ml auf 1 x 10^7 HepG2 bzw. MCF-7-Zellen gegeben. Als Zellkulturmedium wurde 100% fötales Kälberserum (FCS) verwendet. Für den Versuch wurde der Gehalt aus Ausgangsprodukt und Metaboliten im Zellüberstand nach 1, 3 und 6 (HepG2) bzw. 1,3 und 20 Stunden (MCF-7) Inkubationszeit ermittelt. Alle drei Substanzen zeigten in Kontrollversuchen mit 100% FCS nach 40 Stunden metabolische Stabilität.

HCT-8 = experiment: Intracellular uptake of triazenes in HCT-8 cells (Experiment 2); type: in vitro ADME; conditions: HCT-8, 50.000ng/ml, 10.000ng/ml O6-Benzylguanin, first two time points (2, 4 Stunden)
Method: Es wird gezeigt, dass Verbindungen nach Beispiel 1 schneller und in größerer Menge intrazellulär aufgenommen werden als die als Vergleichssubstanzen eingesetzten Verbindungen nach Präparat 2 und 5 (entsprechend Verbindungen nach Präparat 2 und Beispiel 2a jeweils der WO 2009/004060).
Die getesteten Verbindungen wurden wie folgt gelöst: • Erfindungsgemäße Verbindung: • Beispiel 1: in 20 mg/ml DMSO
as §1
Alle drei Substanzen wurden in einer Dosis von 50.000ng/ml auf 2 x 10^7 HepG2 und HCT-8 sowie 2 x 10^6-MDA-MB231 Zellen gegeben. Als Zellkulturmedium wurde 100% (MDA-MB231: 50%) fötales Kälberserum (FCS) verwendet. Zudem wurde bei den Versuchen mit HepG2 und HCT-8 noch 10.000ng/ml O6-Benzylguanin zugesetzt. Für den Versuch wurde die intrazelluläre Konzentration von Ausgangsprodukt und Metaboliten nach 2, 4 und 20 (HepG2), 2 und 3,5 und 20 Stunden (MDA-MB231) und 2,4, 24 und 48 Stunden (HCT-8) Inkubationszeit ermittelt. Alle drei Substanzen zeigten in Kontrollversuchen mit 100% FCS nach 40 Stunden metabolische Stabilität.

MDA-MB231 = experiment: IC50 of triazenes in MDA-MB231 cell line (Experiment 3); type: cell-based; conditions: Homo sapiens, MDA-MB-231; IC50 für die MDA-MB231 gemäß Experiment 3; used as incubation concentration for PBC
Source text: Die nachfolgenden Experimente 3 und 4 zeigen, dass die erfindungsgemäßen neuen Triazenverbindungen eine vergleichbare Anti-Tumorwirkung (IC50) in zahlreichen Krebszelllinien wie der HepG2 (Leber), HCT8 (Darm), DU-145 (Prostata), MCF-7 und MDA-MB-231 (Brust) und MiaPaca-2 (Bauchspeicheldrüse) bei bis zu 100fach niedrigeren Konzentrationen zeigen als vergleichbare Triazene wie DTIC, TMZ oder Substanzen wie sie in der WO 2009/004060 und der DE 1 7931 1 5 beschrieben sind.
Verschiedene Triazene wie erfindungsgemäße Verbindungen nach Beispiel 1, DTIC, TMZ sowie Verbindungen nach Präparat 2 und 5 (entsprechend Verbindungen nach Präparat 2 und Beispiel 2a jeweils der WO 2009/004060) sowie Verbindungen nach Beispiel 33 der DE1793115 wurden in DMSO bzw. Wasser gelöst.
Periphäre Blutzellen (PBC) werden jeweils mit der IC50 für die MDA-MB231 gemäß Experiment 3 der entsprechenden Substanzen inkubiert. Es wird gezeigt, dass die erfindungsgemäße Verbindung nach Beispiel 1 nicht mehr DNA-Schädigungen in den PBC erzeugt als eine Negativkontrolle, […]

Mammakarzinome = experiment: Benzidine-induced mammary carcinoma in female rats (Experiment 6); type: in vivo, Ratten; conditions: s.c. or peroral, observation to day 30, percent median vs. start of treatment
Method: Die Mammakarzinome werden durch subkutane Injektionen von in physiologischer Kochsalz-Lösung suspendiertem Benzidin an weiblichen Ratten induziert. Je nach Art des Rattenstammes sind dazu unterschiedlich hohe Gesamtdosen und verschieden lange Induktionszeiten erforderlich. Bei zwei untersuchten Wistar-Stämmen (Züchter: Spiegel bzw. Winkelmann) erscheinen die Tumoren nach einer Induktionszeit von 150-330 Tagen und einer Gesamtdosis von 1000 bis 1225mg/kg Benzidin subkutan. Bei zwei verschiedenen Sprague-Dawley-Stämmen (Züchter: Mus Rattus AG bzw. Winkelmann) genügt schon eine einzige Benzidin-Injektion von 150mg/kg s.c., um nach 60-180 Tagen die Mammakarzinome entstehen zu lassen. Die Mammakarzinome entwickeln sich fast immer multipel. Acht oder mehr Tumoren pro Tier sind keine Seltenheit. Die Tumoren wachsen ziemlich schnell und führen etwa 30 bis 1 20 Tage nach Tastbarwerden zum Tode der Ratten. Nach 30 Tagen ist eine Tumorgröße von 6g zu erwarten (Figur 1 aus DE 01 7931 15).
Die Vergleichssubstanzen wurden für 30 Tage täglich s.c, oder peroral in Dosierungen zwischen 50-200mg/kg verabreicht. Die Verbindung nach Beispiel 1 wurde s.c. über die ersten 7 Tage in Dosierungen zwischen 20 und 100mg/kg, so dann in Dosierungen von 200 bis 1000mg/kg (in Stufen von 100mg/kg) für weitere 10 Tage appliziert. Bis zum Tag 30 erfolgte keine weitere Behandlung. […]

HL-60 = experiment: Growth inhibition (IC50) in leukaemic HL-60 cells (Experiment 7); type: cell-based; conditions: for IC50: Homo sapiens, HL-60, 24 Stunden
Source text: Hämatologische Zellen (CEM, HL-60) wurden für 24 Stunden mit unterschiedlichen Dosen verschiedener Triazenverbindungen inkubiert, um die IC50 zu bestimmen.

[1] = Formulation trials for intravenous application (Experiment 8); type: physicochemical
Method: Um die Testergebnisse aus Experiment 7 in einem in-vivo Xenograft Modell zu bestätigen, wurden Formulierungsversuche mit Verbindungen nach Beispiel 1 sowie der Verbindung nach Beispiel 2 aus DE 1 793 1 15, als den wirksamsten Verbindungen aus Experiment 7, unternommen.
15mg der Verbindung nach Beispiel 1 werden in 30µL DMSO ([…]) gelöst. Diese Stocklösung wird in 270µL 1 M Na2CO3 Lösung gegeben und nur leicht geschwenkt, nicht aber mittels Ultraschallbad behandelt.
Gleichermaßen sollte eine Formulierung für Verbindungen nach Beispiel 2 aus DE 1 7 93 1 15 hergestellt werden. Hier wurden 15µL der Verbindung nach Beispiel 2 vorgelegt. Bei einer Dichte von 1,08g/ml entsprach dies 16,2mg der Verbindung nach Beispiel 2. Dazu wurden 32,4µL DMSO gegeben. […] Sodann wurden 90µL einer frisch hergestellten 1 molaren Na2CO3 Lösung vorgelegt und 10µL der Lösung der Verbindung nach Beispiel 2 hinzugegeben. […] Auch mittels Ultraschallbad konnte keine Auflösung des erzeugten Niederschlags herbeiführen.

Q: Which metabolisiert (MCF-7-Zellen; innerhalb von 1 Stunde) does the source give for `CN(C)N=Nc1ccc(C(=O)c2ccc(O)cc2)cc1` [Beispiel 1] here?
A: Its metabolisiert is “mehr als der Hälfte”.

Q: What about the metabolisiert (MCF-7-Zellen; nach 3 Stunden) of the same compound?
A: The metabolisiert was “vollständig metabolisiert”.

Q: What about the “intrazelluläre Konzentration vs. Vergleichssubstanzen” value (HCT-8) of the same compound?
A: The value was “deutlich schneller und für die ersten beiden Messpunkte auch in höherer Konzentration intrazellulär nachweisbar”.

Q: And the IC50 (MDA-MB231)?
A: Its IC50 is 27.5 µM.

Q: And the “Entwicklung der Tumorgewichte” value (Mammakarzinome)?
A: Its value is “zu jedem Beobachtungszeitpunkt langsamer als unter einer Therapie mit den verwendeten Vergleichssubstanzen”.

Q: What about the “Wachstumshemmung in x-fach niedrigerer Konzentration” value (HL-60; CEM und HL-60, vs. Triazenverbindungen aus WO2009/004060 und Beispiel 33 aus DE 1793115) of the same compound?
A: The value was ≤ 100 -fach.

Q: What about the IC50 (HL-60; mean of Exp. 1-5, read-out: IC50 Mittelwert) of the same compound?
A: The IC50 was 16.3 µM.

Q: What about the IC50 (HL-60; read-out: IC50 Exp. 1) of the same compound?
A: The IC50 was 12.6 µM.

Q: And the IC50 (HL-60; read-out: IC50 Exp. 2)?
A: Its IC50 is 15.2 µM.

Q: And the IC50 (HL-60; read-out: IC50 Exp. 3)?
A: The IC50 was 24.2 µM.

Q: What about the IC50 (HL-60; read-out: IC50 Exp. 4) of the same compound?
A: The IC50 was 16 µM.

Q: And the IC50 (HL-60; read-out: IC50 Exp. 5)?
A: Its IC50 is 13.4 µM.

Q: And the “Stabilität der gebrauchsfertigen Lösung” value ([1]; 15mg in 30µL DMSO + 270µL 1 M Na2CO3, Raumtemperatur)?
A: Its value is “unter Raumtemperatur stabil”.

Q: And the “Löslichkeit in der Formulierung” value ([1]; DMSO stock solution given into 1 M Na2CO3 Lösung)?
A: Its value is “vollständig löst”.

Q: And the “stabile und verträgliche Formulierung” value ([1]; Lösungsmittel wie Cremophor, PEG400, Tween80, Poloxamer)?
A: The value was “nicht erreicht werden konnte”.
